According to US8568784B2, “Nanoparticles for delivery of active agents” (Morehouse School of Medicine, priority 2006, dated 2013):

assay: Percent entrapment and loading studies of particles; assay type: physicochemical; settings: entrapped in PCL-XP particles

Row | entrapment efficiency [%] | loading per weight of the particles [%] | SMILES
1 | ~100 | ~20 | O=S(=O)([O-])c1cc(S(=O)(=O)Cl)ccc1C1=c2cc3c4c(c2Oc2c1cc1c5c2CCCN5CCC1)CCC[N+]=4CCC3 [TR, Texas Red]
2 | ~100 | ~20 | [Gd] [gadolinium]

Row | SMILES | entrapment efficiency [%] | loading per weight of the particles [%]
3 | N.N.[Cl][Pt][Cl] [cisplatin] | ~100 | ~20
